Measured values taken from the NIST ThermoML archive (doi:10.1016/j.jct.2013.05.031).

Conditions: for surface tension liquid-gas: Capillary rise; for viscosity / mass density: 101.33 kPa, Liquid; for viscosity: Capillary tube (Ostwald / Ubbelohde) method; for mass density: Pycnometric method

CCCCCCCCCCCC[N+](CC)(CC)CC.O=S(=O)([N-]S(=O)(=O)C(F)(F)F)C(F)(F)F
Conditions	mass density [kg/m3]	surface tension liquid-gas [mN/m]	viscosity [mPa·s]
298 K	1191.1	31.8	311.8
303 K	1187.1	31.3	227.6
308 K	1183.1	30.9	167.7
313 K	1179.4	30.3	137.8
318 K	1175.7	29.9	98.82
323 K	1171.6	29.5	78.71
328 K	1167.9	29.1	62.52
333 K	1164.2	28.5	49.82
338 K	1160.7	28.2	41.48
343 K	1157.2	27.7	34.69
348 K	1153.3	27.2	29.44
353 K	1149.5	26.8	25.13
358 K	1145.5	26.4	21.3
363 K	1141.4	26	18.31
368 K	1137.6	25.5	16.51
373 K	1133.7	25.2	14.2

CCCCCC[N+](CC)(CC)CC.O=S(=O)([N-]S(=O)(=O)C(F)(F)F)C(F)(F)F [triethylhexylammonium bis((trifluoromethyl)sulfonyl)imide]
Conditions	mass density [kg/m3]	surface tension liquid-gas [mN/m]	viscosity [mPa·s]
298 K	1291.4	34.1	186.6
303 K	1287.4	33.7	137.9
308 K	1283.4	33.3	105.1
313 K	1279.5	32.9	81.64
318 K	1275.2	32.5	65.32
323 K	1271.3	32.1	52.03
328 K	1267.1	31.7	42.34
333 K	1262.5	31.3	35.41
338 K	1258.5	30.9	28.94
343 K	1254.5	30.5	24.77
348 K	1251.3	30.1	20.96
353 K	1247.3	29.7	18.03
358 K	1243.3	29.3	15.83
363 K	1238.4	28.9	13.9
368 K	1234.9	28.5	12.25
373 K	1231.1	28.2	10.86

CCCCCCCC[N+](CC)(CC)CC.O=S(=O)([N-]S(=O)(=O)C(F)(F)F)C(F)(F)F [triethyloctylammonium bis[(trifluoromethyl)sulfonyl]imide]
Conditions	mass density [kg/m3]	surface tension liquid-gas [mN/m]	viscosity [mPa·s]
298 K	1251.2	33.1	221.4
303 K	1247.2	32.8	163.9
308 K	1242.9	32.3	124.7
313 K	1239.4	31.8	96.76
318 K	1235.2	31.4	76.47
323 K	1231.3	31	60.52
328 K	1227.5	30.6	48.63
333 K	1223.2	30.1	39.85
338 K	1219	29.7	33.2
343 K	1216	29.3	28.23
348 K	1212.9	28.9	23.8
353 K	1207.8	28.6	20.36
358 K	1203.5	28.1	17.83
363 K	1200.2	27.7	15.55
368 K	1196	27.3	13.5
373 K	1192.3	26.9	12.05

CCCCC[N+](CC)(CC)CC.O=S(=O)([N-]S(=O)(=O)C(F)(F)F)C(F)(F)F [triethylpentylammonium bis(trifluoromethylsulfonyl)imide]
Conditions	mass density [kg/m3]	surface tension liquid-gas [mN/m]	viscosity [mPa·s]
298 K	1321.5	35.7	161.6
303 K	1317.4	35.4	121.4
308 K	1313.2	35	92.11
313 K	1308.9	34.7	71.86
318 K	1304.9	34.3	57.52
323 K	1301	34	46.74
328 K	1296.6	33.6	37.78
333 K	1293.1	33.3	31.43
338 K	1289.1	32.9	26.57
343 K	1284.7	32.6	22.47
348 K	1280.9	32.2	19.27
353 K	1277.3	31.8	16.71
358 K	1272.9	31.5	14.79
363 K	1268.6	31.1	12.87
368 K	1265.1	30.7	11.5
373 K	1260.7	30.4	10.17
